This is an account of results in ChEMBL document CHEMBL5291721, “A preclinical secondary pharmacology resource illuminates target-adverse drug reaction associations of marketed drugs” (Nat Commun, 2023).

In test [1] the target is T1, Peroxisome proliferator-activated receptor gamma (Homo sapiens, UniProt P37231).
T1 sequence (P37231 whole entry): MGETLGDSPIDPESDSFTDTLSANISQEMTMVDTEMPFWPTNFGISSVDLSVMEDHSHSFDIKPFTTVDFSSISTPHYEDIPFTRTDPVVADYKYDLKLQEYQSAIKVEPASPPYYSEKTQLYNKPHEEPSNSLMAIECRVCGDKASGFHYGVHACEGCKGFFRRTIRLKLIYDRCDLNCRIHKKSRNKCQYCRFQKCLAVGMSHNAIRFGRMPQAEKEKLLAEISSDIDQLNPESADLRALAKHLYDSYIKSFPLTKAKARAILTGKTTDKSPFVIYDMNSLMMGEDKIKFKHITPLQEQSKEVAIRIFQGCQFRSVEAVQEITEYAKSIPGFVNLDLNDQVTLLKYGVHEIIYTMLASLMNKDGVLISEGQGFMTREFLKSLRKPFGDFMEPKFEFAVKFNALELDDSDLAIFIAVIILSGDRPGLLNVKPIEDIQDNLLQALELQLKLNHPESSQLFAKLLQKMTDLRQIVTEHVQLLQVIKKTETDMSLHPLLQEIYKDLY
It is filed as functional.

The target in test [2] is T1, Peroxisome proliferator-activated receptor gamma. It is filed as functional. This is another data set of the same source.
Test [3] concerns the target Gamma-aminobutyric acid type B receptor subunit 1 (Homo sapiens, UniProt Q9UBS5).
Test [4] deals with 5-hydroxytryptamine receptor 2A (Homo sapiens, UniProt P28223).
Sequence of 5-hydroxytryptamine receptor 2A (P28223 whole entry): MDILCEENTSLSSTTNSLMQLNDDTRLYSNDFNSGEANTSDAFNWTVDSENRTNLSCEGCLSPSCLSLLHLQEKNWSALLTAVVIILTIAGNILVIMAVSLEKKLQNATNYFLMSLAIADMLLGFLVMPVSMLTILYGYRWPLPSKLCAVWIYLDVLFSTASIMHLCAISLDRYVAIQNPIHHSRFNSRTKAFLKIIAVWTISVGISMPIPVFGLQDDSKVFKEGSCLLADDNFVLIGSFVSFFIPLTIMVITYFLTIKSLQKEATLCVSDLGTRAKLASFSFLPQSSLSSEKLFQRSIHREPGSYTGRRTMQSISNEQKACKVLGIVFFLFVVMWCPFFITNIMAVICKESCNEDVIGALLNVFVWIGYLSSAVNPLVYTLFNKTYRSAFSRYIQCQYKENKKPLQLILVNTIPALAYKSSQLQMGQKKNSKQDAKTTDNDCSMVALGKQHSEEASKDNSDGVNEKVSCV
Test [5] addresses 5-hydroxytryptamine receptor 6 (Homo sapiens, UniProt P50406).
The target of test [6] is T2, Alpha-1A adrenergic receptor (Homo sapiens, UniProt P35348).
T2 sequence (P35348 whole entry): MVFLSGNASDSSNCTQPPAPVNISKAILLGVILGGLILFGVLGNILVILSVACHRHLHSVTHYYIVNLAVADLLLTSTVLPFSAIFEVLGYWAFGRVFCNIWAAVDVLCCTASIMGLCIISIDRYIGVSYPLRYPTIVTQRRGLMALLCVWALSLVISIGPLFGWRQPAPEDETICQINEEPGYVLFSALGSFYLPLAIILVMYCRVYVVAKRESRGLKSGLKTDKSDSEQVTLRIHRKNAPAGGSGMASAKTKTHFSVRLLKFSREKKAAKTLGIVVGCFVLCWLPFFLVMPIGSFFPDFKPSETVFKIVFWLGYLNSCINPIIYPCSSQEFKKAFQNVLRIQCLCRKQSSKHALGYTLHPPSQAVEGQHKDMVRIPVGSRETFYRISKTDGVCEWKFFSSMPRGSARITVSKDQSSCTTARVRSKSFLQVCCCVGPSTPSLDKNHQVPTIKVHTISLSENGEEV

Test [7] addresses T3, Muscarinic acetylcholine receptor M2 (Homo sapiens, UniProt P08172).
T3 sequence (P08172 whole entry): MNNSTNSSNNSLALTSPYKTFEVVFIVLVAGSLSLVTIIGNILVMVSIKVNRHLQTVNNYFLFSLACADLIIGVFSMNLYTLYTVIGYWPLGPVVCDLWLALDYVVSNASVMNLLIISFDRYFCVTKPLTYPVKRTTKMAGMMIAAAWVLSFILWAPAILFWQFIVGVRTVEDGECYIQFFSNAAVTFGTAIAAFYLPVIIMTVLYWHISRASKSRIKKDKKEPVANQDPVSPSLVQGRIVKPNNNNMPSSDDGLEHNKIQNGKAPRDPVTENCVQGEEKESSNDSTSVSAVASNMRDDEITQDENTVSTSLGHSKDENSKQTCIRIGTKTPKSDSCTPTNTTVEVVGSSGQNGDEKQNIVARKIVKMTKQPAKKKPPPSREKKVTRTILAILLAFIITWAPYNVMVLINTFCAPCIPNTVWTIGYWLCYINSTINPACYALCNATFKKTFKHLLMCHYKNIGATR

The target in test [8] is T4, Muscarinic acetylcholine receptor M1 (Homo sapiens, UniProt P11229).
T4 sequence (P11229 whole entry): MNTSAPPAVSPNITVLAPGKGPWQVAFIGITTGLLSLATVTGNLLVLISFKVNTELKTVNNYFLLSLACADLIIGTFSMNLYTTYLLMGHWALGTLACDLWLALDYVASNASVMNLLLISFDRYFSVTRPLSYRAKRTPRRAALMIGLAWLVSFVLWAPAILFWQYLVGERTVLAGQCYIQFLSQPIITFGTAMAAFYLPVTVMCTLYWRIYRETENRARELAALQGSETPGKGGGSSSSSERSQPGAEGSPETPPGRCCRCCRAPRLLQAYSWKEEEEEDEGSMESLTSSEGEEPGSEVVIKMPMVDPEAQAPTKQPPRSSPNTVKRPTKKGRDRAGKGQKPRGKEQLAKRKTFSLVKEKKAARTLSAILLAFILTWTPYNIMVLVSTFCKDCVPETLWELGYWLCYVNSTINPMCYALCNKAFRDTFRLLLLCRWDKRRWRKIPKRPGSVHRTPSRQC

Test [9] deals with Beta-1 adrenergic receptor (Homo sapiens, UniProt P08588). It counts as functional, cell-based.
Sequence of Beta-1 adrenergic receptor (P08588 whole entry): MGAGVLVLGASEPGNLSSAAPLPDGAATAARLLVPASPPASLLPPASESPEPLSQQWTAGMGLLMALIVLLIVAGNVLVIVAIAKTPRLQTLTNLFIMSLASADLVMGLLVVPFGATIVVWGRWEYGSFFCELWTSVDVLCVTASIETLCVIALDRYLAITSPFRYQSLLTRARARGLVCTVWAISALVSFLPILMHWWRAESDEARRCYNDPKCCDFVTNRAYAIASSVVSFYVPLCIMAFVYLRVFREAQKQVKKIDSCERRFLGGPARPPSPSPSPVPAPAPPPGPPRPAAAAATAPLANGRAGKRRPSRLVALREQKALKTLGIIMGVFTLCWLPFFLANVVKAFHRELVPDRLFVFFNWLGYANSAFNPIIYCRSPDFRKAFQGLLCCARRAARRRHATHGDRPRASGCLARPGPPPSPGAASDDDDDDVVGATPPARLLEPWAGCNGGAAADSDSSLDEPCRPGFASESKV
Test [10] addresses T5, Histamine H1 receptor (Homo sapiens, UniProt P35367). It counts as functional, cell-based.
For test [11], the target named is T5, Histamine H1 receptor. It is filed as functional, cell-based. This is another data set of the same source.
Also: assay procedure not described here.

T5 sequence (P35367 whole entry): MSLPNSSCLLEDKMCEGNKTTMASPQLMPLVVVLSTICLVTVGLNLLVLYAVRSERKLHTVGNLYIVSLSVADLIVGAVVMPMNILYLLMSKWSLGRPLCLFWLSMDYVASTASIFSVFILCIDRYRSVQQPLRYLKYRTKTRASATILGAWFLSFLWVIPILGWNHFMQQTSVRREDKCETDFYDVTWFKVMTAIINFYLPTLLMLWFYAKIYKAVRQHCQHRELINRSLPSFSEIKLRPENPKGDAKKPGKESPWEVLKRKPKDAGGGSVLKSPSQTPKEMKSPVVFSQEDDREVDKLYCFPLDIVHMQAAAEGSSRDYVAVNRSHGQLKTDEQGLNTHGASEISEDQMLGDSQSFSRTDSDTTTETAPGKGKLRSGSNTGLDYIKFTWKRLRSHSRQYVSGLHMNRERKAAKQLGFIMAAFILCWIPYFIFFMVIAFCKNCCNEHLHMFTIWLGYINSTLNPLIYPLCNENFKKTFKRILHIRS
Sequence of 5-hydroxytryptamine receptor 6 (P50406 whole entry): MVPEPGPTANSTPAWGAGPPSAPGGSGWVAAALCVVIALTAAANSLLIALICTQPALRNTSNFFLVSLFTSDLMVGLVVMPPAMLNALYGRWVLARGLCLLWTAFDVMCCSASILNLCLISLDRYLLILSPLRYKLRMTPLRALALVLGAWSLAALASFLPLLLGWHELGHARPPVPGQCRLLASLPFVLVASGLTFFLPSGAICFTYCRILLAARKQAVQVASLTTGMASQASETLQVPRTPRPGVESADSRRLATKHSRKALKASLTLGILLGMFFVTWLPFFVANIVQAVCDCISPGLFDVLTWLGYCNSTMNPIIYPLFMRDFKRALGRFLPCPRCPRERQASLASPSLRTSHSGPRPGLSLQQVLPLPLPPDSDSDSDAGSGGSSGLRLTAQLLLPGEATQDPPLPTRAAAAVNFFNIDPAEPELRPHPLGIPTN
Sequence of Gamma-aminobutyric acid type B receptor subunit 1 (Q9UBS5 whole entry): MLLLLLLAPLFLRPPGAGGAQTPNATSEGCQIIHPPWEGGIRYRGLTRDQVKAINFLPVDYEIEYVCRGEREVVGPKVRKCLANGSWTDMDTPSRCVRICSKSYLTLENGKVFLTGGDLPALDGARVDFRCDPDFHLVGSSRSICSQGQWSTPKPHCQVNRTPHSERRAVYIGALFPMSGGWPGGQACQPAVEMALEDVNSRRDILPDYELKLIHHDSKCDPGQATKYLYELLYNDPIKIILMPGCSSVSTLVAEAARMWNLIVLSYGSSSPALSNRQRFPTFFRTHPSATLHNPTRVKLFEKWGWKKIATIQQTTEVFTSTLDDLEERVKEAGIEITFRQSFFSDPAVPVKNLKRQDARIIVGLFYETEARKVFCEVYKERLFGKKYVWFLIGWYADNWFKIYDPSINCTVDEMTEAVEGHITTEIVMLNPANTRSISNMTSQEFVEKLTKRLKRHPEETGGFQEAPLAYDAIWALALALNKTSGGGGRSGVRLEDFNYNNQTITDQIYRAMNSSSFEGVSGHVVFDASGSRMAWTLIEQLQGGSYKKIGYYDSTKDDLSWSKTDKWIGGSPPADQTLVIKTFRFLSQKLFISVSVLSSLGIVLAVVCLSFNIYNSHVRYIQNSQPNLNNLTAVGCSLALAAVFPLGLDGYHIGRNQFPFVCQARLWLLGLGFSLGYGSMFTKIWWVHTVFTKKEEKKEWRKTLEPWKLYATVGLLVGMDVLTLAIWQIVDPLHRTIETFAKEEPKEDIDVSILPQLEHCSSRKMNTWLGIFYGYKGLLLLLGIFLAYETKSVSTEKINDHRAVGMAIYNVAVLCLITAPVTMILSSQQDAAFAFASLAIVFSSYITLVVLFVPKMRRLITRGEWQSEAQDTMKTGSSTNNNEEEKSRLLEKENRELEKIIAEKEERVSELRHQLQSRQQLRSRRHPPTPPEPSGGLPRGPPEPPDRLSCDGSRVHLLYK

Turning to `CCC(CC)(CC(=O)Nc1cccc(/C=C/c2nc(C3CCC3)cs2)c1)C(=O)O`, the AC50 in test [1] and in [2] was over 30 µM throughout.
Take `CC[C@@H](C(N)=O)N1CCCC1=O`: the AC50 in [1] and in test [2] was over 30 µM in each case.
On to `CCCCCNC(=N)N/N=C/c1c[nH]c2ccc(OC)cc12` [TEGASEROD], for which the AC50 (in general, the concentration giving half of the maximal activity seen) in test [1] is over 30 µM; in [2], over 30 µM; in [3], over 10 µM; in test [4], 0.174 µM; in [5], 0.198 µM; in test [6] it was 0.267 µM.
`COc1cc2nc(N3CCN(C(=O)c4ccco4)CC3)nc(N)c2cc1OC` [PRAZOSIN]: the AC50 in [7] was 13.2 µM.
For `COc1ccccc1N1CCN(CC(O)COc2cccc3ccccc23)CC1` (stereo not drawn) [NAFTOPIDIL], the AC50 in test [8] and in test [9] was over 30 µM in each case.
As to `O=[N+]([O-])O[C@@H]1CO[C@H]2[C@@H]1OC[C@@H]2O` [ISOSORBIDE MONONITRATE], the AC50 in test [4], in test [6] and in [7] was over 10 µM in each case.
On to `CN1CCN(C2=Nc3ccccc3Sc3ccc(Cl)cc32)CC1` [CLOTHIAPINE], for which the AC50 in test [10] is 0.63 µM; in test [11] it was over 30 µM.
Regarding `O=[N+]([O-])c1cn2c(n1)OC[C@@H](OCc1ccc(OC(F)(F)F)cc1)C2` [PRETOMANID], the AC50 in test [4], in test [5] and in test [6] was over 10 µM in each case.
The compound `C=CCN1C[C@H](C(=O)N(CCCN(C)C)C(=O)NCC)C[C@@H]2c3cccc4[nH]cc(c34)C[C@H]21` [CABERGOLINE] returned an AC50 in [4] of 0.0077 µM.
`CCOc1ccc(Cc2cc([C@@H]3O[C@H](CO)[C@@H](O)[C@H](O)[C@H]3O)ccc2Cl)cc1` [DAPAGLIFLOZIN] returned an AC50 in test [7] of over 10 µM.
In the case of `COc1ccc(C(=O)Nc2ccccc2CCC2CCCCN2C)cc1` (stereo not drawn) [ENCAINIDE], the AC50 was over 30 µM in test [10]; over 30 µM in test [11]; 0.103 µM in test [4]; over 10 µM in test [6]; over 10 µM in test [7].
`CCOc1ccccc1OCC1CNCCO1` (stereo not drawn) [VILOXAZINE]: the AC50 was over 30 µM in test [10]; over 30 µM in [11]; over 10 µM in [3]; over 10 µM in [5]; over 10 µM in [6]; over 10 µM in [7].
On to `CN(C)CC/C=C1\c2ccccc2CSc2ccccc21` [DOTHIEPIN], for which, in test [9], the AC50 was over 30 µM.
In [8], `Cc1cc(C)c(NC(=O)CN(CC(=O)O)CC(=O)O)c(C)c1Br` [MEBROFENIN] came in with an AC50 of over 30 µM.
The same measure, in the same setting: with `C=CCCCCCCCCC(=O)O` [UNDECYLENIC ACID] the figure was over 30 µM; with `Cc1oc(=O)oc1CN1CCN(c2cc3c(cc2F)c(=O)c(C(=O)O)c2n3C(C)S2)CC1` (stereo not drawn) [PRULIFLOXACIN], over 30 µM.
On to `CN(C)CCc1c[nH]c2ccc(C[C@H]3COC(=O)N3)cc12` [ZOLMITRIPTAN], for which the half-maximal activity concentration (AC50) in test [10] and in [11] was over 30 µM each time.
`Nc1ccncc1N` [AMIFAMPRIDINE] gave an AC50 in test [8] of over 30 µM.
As to `CC[C@H]1CN2CCc3cc(OC)c(OC)cc3[C@@H]2C[C@@H]1C[C@H]1NCCc2cc(OC)c(OC)cc21` [EMETINE], the AC50 in test [1] and in [2] was over 30 µM in each case.
